For assay [1], the system named is Kr cells. The assay can be described thus: Process elaboration and inhibition of cell proliferation in Kr cells. The settings on record: at saturating concentrations. Format: cell-based, Drosophila. Here is the method: The invention will now be further described by way of exemplification and by reference to the drawings in which; • Figure 1. Both 20-hydroxyecdysone and Example No. 3 induce process elaboration (A) and inhibition of cell proliferation (B) in Kr cells in a dose-dependent manner. Initial cell density was 2 X 10^6 cells/ml; after incubation of 1 ml aliquots of the cells with the compound for 48 hours the cells were triturated gently and the percentage of cells responding (with processes longer than approximately 17 um, see Cherbas et al. 189 Wilhelm Roux's Arch. 1 (1980)) and total cell density was determined by hemocytom- eter counting, relative to ethanol (1 ul)-treated controls. Determinations were in triplicate for each dose. […] Induction of acetylcholinesterase by varying concentrations of 20-hydroxyecdysone and Example No. 3. Kr cells at an initial density of 3 X 10^6 cells/ml (10 ml per sample) were incubated with the agonist for three days. After harvesting, by centrifugation at 3000 X g, the cell pellets were washed with Robb's Drosophila saline (18, 2 X 5 ml) at 4 ° C, then lysed by sonication in 1 ml of phosphate buffer (pH 7.4, I = 0.1 M) containing 0.5 M NaCI, 0.25 M EDTA and 0.5% TRITON? X-100. See Cherbas, 197 Science 275 (1977). Triton is a registered trademark of Rohm and Haas Company for a alkylaryl polyoxyethylene glycol surfactant. After centrifugation at 16,000 X g, the supernatants were assayed for acetylcholinesterase activity by an adaptation of the method of Ellman et al., 7 Biochem. Pharmacol. 88 (1961), by subtracting out any 412 nm absorbance observed in incubations in the presence of 2 X 10-5 eserine sulfate. Thus reaction mixtures contained 50 ul of enzyme extract, 20 ul eserine (blank tubes only) and 1.0 ml of 0.5 mM acetylthiocholine, 0.3 mM dithiobisnitrobenzoic acid in phosphate buffer (pH 7.4, I = 0.1 M). Incubations were at 25 ° C for two hours; reactions in active tubes were terminated by addition of eserine. Absorbance at 412 nm was then measured. Protein concentration in extracts was measured by the Biorad method. […] Scatchard plot of ^3H-ponasterone A binding to Kr cell cytosolic receptor extracts in the presence of differing concentrations of Example No. 3. Cytosolic extract preparation and ecdysteroid receptor assays were essentially as described in Sage, 111 Meth. in Enzymol. 458 (1985). Example No. 3 was added in 1 ul DMSO to 50 ul of radioligand in 10 mM Tris buffer (pH 7.2) and 50 ul of undiluted cytosol extract. […] Ecdysteroid titers were measured by a radioimmunoassay adapted from Warren et al., 40 Experientia 393 (1984) with Protein A-Staph. aureus suspension (Sigma) used as the reagent to separate bound from free ligand. […]

Assay [2] deals with T1, ecdysone receptor (Drosophila melanogaster, UniProt P34021).
T1 construct: endogenous in cells; host or cells: Drosophila Kr (Kc) cells, undiluted cytosolic extract
T1 sequence (P34021 1-878): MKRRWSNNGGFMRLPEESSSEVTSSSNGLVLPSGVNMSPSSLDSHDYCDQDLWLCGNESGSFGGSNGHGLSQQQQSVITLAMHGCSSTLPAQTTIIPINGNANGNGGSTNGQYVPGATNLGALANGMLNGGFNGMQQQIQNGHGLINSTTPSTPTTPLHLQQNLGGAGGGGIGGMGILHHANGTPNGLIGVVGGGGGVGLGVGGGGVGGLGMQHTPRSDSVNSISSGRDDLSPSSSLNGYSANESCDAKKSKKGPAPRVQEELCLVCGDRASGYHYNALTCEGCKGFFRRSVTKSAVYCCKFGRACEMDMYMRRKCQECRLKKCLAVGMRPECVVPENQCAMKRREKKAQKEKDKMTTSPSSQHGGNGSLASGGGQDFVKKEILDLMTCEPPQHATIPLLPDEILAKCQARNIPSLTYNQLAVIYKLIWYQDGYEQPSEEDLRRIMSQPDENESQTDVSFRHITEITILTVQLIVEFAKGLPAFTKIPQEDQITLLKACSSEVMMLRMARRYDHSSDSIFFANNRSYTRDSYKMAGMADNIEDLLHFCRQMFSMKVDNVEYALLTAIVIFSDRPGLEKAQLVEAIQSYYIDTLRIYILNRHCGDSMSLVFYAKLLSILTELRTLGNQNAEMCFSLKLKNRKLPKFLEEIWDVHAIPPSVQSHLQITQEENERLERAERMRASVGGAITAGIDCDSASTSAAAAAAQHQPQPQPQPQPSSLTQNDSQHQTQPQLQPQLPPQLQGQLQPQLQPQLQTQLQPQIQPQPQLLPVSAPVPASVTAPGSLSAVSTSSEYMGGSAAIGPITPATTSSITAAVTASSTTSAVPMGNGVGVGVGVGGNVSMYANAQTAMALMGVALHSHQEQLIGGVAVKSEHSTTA
T1 sequence (P20153 1-508 partner): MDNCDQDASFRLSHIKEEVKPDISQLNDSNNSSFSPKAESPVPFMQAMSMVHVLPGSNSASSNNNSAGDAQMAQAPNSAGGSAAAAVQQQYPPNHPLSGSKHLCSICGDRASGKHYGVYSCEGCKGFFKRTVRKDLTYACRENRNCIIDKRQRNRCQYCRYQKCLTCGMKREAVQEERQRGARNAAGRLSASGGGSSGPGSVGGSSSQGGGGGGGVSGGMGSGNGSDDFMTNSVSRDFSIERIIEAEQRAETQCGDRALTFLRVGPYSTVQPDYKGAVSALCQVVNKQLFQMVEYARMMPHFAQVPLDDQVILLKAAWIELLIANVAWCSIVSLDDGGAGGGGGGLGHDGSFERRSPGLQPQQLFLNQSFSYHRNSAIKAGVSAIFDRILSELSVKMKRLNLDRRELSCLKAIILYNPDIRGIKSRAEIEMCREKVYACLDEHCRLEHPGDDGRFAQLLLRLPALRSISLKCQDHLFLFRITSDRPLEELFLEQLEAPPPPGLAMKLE
The assay can be described thus: ^3H-ponasterone A binding to / displacement from Kr cell cytosolic receptor extracts. The settings on record: for displacement of ^3H-ponasterone A from cytosolic receptor extracts: at saturating concentrations. The protocol: The invention will now be further described by way of exemplification and by reference to the drawings in which; • Figure 1. Both 20-hydroxyecdysone and Example No. 3 induce process elaboration (A) and inhibition of cell proliferation (B) in Kr cells in a dose-dependent manner. Initial cell density was 2 X 10^6 cells/ml; after incubation of 1 ml aliquots of the cells with the compound for 48 hours the cells were triturated gently and the percentage of cells responding (with processes longer than approximately 17 um, see Cherbas et al. 189 Wilhelm Roux's Arch. 1 (1980)) and total cell density was determined by hemocytom- eter counting, relative to ethanol (1 ul)-treated controls. Determinations were in triplicate for each dose. […] Induction of acetylcholinesterase by varying concentrations of 20-hydroxyecdysone and Example No. 3. Kr cells at an initial density of 3 X 10^6 cells/ml (10 ml per sample) were incubated with the agonist for three days. After harvesting, by centrifugation at 3000 X g, the cell pellets were washed with Robb's Drosophila saline (18, 2 X 5 ml) at 4 ° C, then lysed by sonication in 1 ml of phosphate buffer (pH 7.4, I = 0.1 M) containing 0.5 M NaCI, 0.25 M EDTA and 0.5% TRITON? X-100. See Cherbas, 197 Science 275 (1977). Triton is a registered trademark of Rohm and Haas Company for a alkylaryl polyoxyethylene glycol surfactant. After centrifugation at 16,000 X g, the supernatants were assayed for acetylcholinesterase activity by an adaptation of the method of Ellman et al., 7 Biochem. Pharmacol. 88 (1961), by subtracting out any 412 nm absorbance observed in incubations in the presence of 2 X 10-5 eserine sulfate. Thus reaction mixtures contained 50 ul of enzyme extract, 20 ul eserine (blank tubes only) and 1.0 ml of 0.5 mM acetylthiocholine, 0.3 mM dithiobisnitrobenzoic acid in phosphate buffer (pH 7.4, I = 0.1 M). Incubations were at 25 ° C for two hours; reactions in active tubes were terminated by addition of eserine. Absorbance at 412 nm was then measured. Protein concentration in extracts was measured by the Biorad method. […] Scatchard plot of ^3H-ponasterone A binding to Kr cell cytosolic receptor extracts in the presence of differing concentrations of Example No. 3. Cytosolic extract preparation and ecdysteroid receptor assays were essentially as described in Sage, 111 Meth. in Enzymol. 458 (1985). Example No. 3 was added in 1 ul DMSO to 50 ul of radioligand in 10 mM Tris buffer (pH 7.2) and 50 ul of undiluted cytosol extract. After incubation overnight at 0.5 ° C, bound label was separated from free by addition of 300 ul 1% HCI-washed charcoal (Sigma) and 0.1% Dextran T70 (Pharmacia) in Tris buffer, centrifugation (13,000 X g, 3 min, 4 ° C) and liquid scintillation counting of a 300 ul aliquot of the supernatant in 15 ml Hydrofluor (National Diagnostics). Points are means of duplicate determinations. […] Relative ability of 20 hydroxyecdysone and Example No. 3 to displace ^3H-ponasterone A from cytosolic receptor extracts. Conditions were as in Figure 3 except that only 0.5 nM ponasterone A was used. • Points are means of duplicate determinations. For 20-hydroxyecdysone EC50 = 0.1 uM while for Example No. 3 EC50 = 3.0 uM. Control binding = 10 femtomoles ^3H-ponasterone A bound per mg cytosol protein. • Figure 4. Effects of 10 ppm Example No. 3 administered in artificial diet to newly ecdysed fourth instar (L4) M. sexta, monitoring (A)immunoreactive hemolymph ecdysteroid titers and (B)weight gain. Ecdysteroid titers were measured by a radioimmunoassay adapted from Warren et al., 40 Experientia 393 (1984) with Protein A-Staph. aureus suspension (Sigma) used as the reagent to separate bound from free ligand. The antiecdysone antiserum was formed by reaction of 20-hydroxyecdysone with carboxymethox- yamine resulting in the corresponding ecdysteroid 6-oxime acid. […] All samples were diluted appropriately in borate buffer pH 8.0 and assayed in duplicate. […]

The test system of assay [3] is antiecdysone antiserum. The assay can be described thus: Binding by antiecdysone antiserum (radioimmunoassay). As to conditions: ^3H-alpha ecdysone as the radioligand. The protocol:
The invention will now be further described by way of exemplification and by reference to the drawings in which; • Figure 1. Both 20-hydroxyecdysone and Example No. 3 induce process elaboration (A) and inhibition of cell proliferation (B) in Kr cells in a dose-dependent manner. Initial cell density was 2 X 10^6 cells/ml; after incubation of 1 ml aliquots of the cells with the compound for 48 hours the cells were triturated gently and the percentage of cells responding (with processes longer than approximately 17 um, see Cherbas et al. 189 Wilhelm Roux's Arch. 1 (1980)) and total cell density was determined by hemocytom- eter counting, relative to ethanol (1 ul)-treated controls. Determinations were in triplicate for each dose. […] Induction of acetylcholinesterase by varying concentrations of 20-hydroxyecdysone and Example No. 3. Kr cells at an initial density of 3 X 10^6 cells/ml (10 ml per sample) were incubated with the agonist for three days. After harvesting, by centrifugation at 3000 X g, the cell pellets were washed with Robb's Drosophila saline (18, 2 X 5 ml) at 4 ° C, then lysed by sonication in 1 ml of phosphate buffer (pH 7.4, I = 0.1 M) containing 0.5 M NaCI, 0.25 M EDTA and 0.5% TRITON? X-100. See Cherbas, 197 Science 275 (1977). Triton is a registered trademark of Rohm and Haas Company for a alkylaryl polyoxyethylene glycol surfactant. After centrifugation at 16,000 X g, the supernatants were assayed for acetylcholinesterase activity by an adaptation of the method of Ellman et al., 7 Biochem. Pharmacol. 88 (1961), by subtracting out any 412 nm absorbance observed in incubations in the presence of 2 X 10-5 eserine sulfate. […] Absorbance at 412 nm was then measured. Protein concentration in extracts was measured by the Biorad method. […] Ecdysteroid titers were measured by a radioimmunoassay adapted from Warren et al., 40 Experientia 393 (1984) with Protein A-Staph. aureus suspension (Sigma) used as the reagent to separate bound from free ligand. […]

`O=C(NC(=O)c1c(F)cccc1F)Nc1cc(Cl)c(Oc2ncc(C(F)(F)F)cc2Cl)c(Cl)c1` [1-(3,5-dichloro-4-(3-chloro-5-trifluoromethyl-2-pyridyloxy)phenyl)-3-(2,6-difluorobenzoyl)urea]: the “ecdysone-like responses in whole Kr cells” value in assay [1] was “failed to produce ecdysone-like responses”. Also, the “displacement of ^3H-ponasterone A from cytosolic receptor extracts” value in assay [2] is given as “did not displace”.
For `O=C(NC(=O)c1c(F)cccc1F)Nc1ccc(Cl)cc1` [1-(4-chloro-phenyl)-3-(2,6-difluorobenzoyl)urea], the “ecdysone-like responses in whole Kr cells” value in assay [1] was “failed to produce ecdysone-like responses”. For the same molecule, the “displacement of ^3H-ponasterone A from cytosolic receptor extracts” value in assay [2] is recorded as “did not displace”.
A word on the Kd: it is the free concentration of one partner at which half of the binding sites on the other are occupied at equilibrium, for simple one-to-one binding. As to `CC(C)CC[C@@H](O)[C@](C)(O)[C@H]1CC[C@@]2(O)C3=CC(=O)[C@@H]4C[C@@H](O)[C@@H](O)C[C@]4(C)[C@H]3CC[C@]12C` [^3H-ponasterone A, ponasterone A], the Bmax is recorded as 0.79 nm in assay [2] (Figure 3A legend, in the absence of Example No. 3) and 0.71 nM in assay [2] (text b415, in the absence of Example No. 3). The same molecule yielded a Kd in assay [2] (Scatchard plot, in the absence of Example No. 3) of 0.29 nM.
`C[C@H]([C@H](O)CCC(C)(C)O)[C@H]1CC[C@@]2(O)C3=CC(=O)[C@@H]4C[C@@H](O)[C@@H](O)C[C@]4(C)[C@H]3CC[C@]12C` [alpha-ecdysone, reference compound]: in assay [3], the “fold greater affinity than 20-hydroxyecdysone” value was 2.7 fold.
